{"source": "patent US20070154549A1", "about": "“Multiparticulate formulations for oral delivery” (VECTURA LTD, priority 2003, published 2007)", "experiment": "Dissolution studies / drug release", "assay_type": "physicochemical", "details": "levels of hydrophobic melt binder of up to 20%", "note": "Counter-ions that a name gives are not always drawn.", "data": [{"smiles": "CN(C)CCC(c1ccc(Cl)cc1)c1ccccn1", "note": "(stereo not shown) [chlorpheniramine maleate]", "values": [{"measurement": "drug release", "value": "do not delay drug release"}]}]}
